Test results published in patent US9399635B2, “Pyrazole derivative” (GREEN TECH CO., LTD., priority 2011, dated 2016).
Read-outs that look alike come from different tables or passages of the source.

Experiments:
[1] = target: T1, recombinant human β-secretase (Homo sapiens, UniProt P56817); assay: Determination of β-secretase inhibitory activity (BACE-1 FRET assay Kit); type: biochemical; conditions: for IC50: recombinant human β-secretase, fluorescent substrate peptide, 1 hour, read-out: IC50 (μM) Test example 2 (β-secretase inhibitory activity); for inhibition at 1 µM: compound at 1 μM
T1 construct: purchased Invitrogen
Experimental: Pharmacological Test Example 2: Determination of β-Secretase Inhibitory Activity
The β-secretase inhibitory activity was measured with BACE-1 FRET assay Kit (Invitrogen). The test compounds were prepared using DMSO at 30-fold of their final concentrations and dissolved so that the DMSO concentration would be 10%. To each of the solutions, an equal volume of a recombinant human β-secretase (1 U/mL) dissolved in the assay buffer and an equal volume of fluorescent substrate peptide (2.5 nM) were added and the solutions were left to stand for 1 hour. The fluorescence intensity was measured with a fluorescence plate reader (excitation wavelength: 545 nm; emission wavelength: 590 nm).
The final concentration of each compound at the time of measurement was set at 0.1, 0.3, 1, 3, and 10 μM, at 0.3, 1, 3, 10, and 30 μM, or at 1, 3, 10, 30, and 100 μM.

[2] = target: recombinant three-repeat microtubule-binding domain (3R-MBD) of tau protein (Homo sapiens, UniProt P10636); assay: Determination of tau aggregation inhibitory activity (heparin-induced, thioflavin T fluorescence; electron microscope); type: biochemical; conditions: for IC50: 3R-MBD tau 10 μM, heparin 10 μM, 37° C. for 16 hours, thioflavin T, read-out: IC50 (μM) Test example 1 (tau aggregation inhibitory activity); for tau aggregation inhibitory activity at 1 μM: compound at 1 μM
Experimental: Pharmacological Test Example 1: Determination of Tau Aggregation Inhibitory Activity
A recombinant three-repeat microtubule-binding domain (3R-MBD) of tau protein was expressed in E. coli and was purified and used for the experiment. The purified tau solution was diluted with a 50 mM Tris-HCl buffer (pH 7.6) to a final concentration of 10 μM. The test compounds were prepared using dimethylsulfoxide (DMSO) at 20-fold of their final concentrations and added to the plate so that the DMSO concentration would be 5%. Heparin was added to the plate so that the final concentration would be 10 μM and the plate was left to stand at 37° C. for 16 hours. Thioflavin T was added to the plate so that the concentration would be 10 μM and the fluorescence intensity was measured with a fluorescence plate reader (PerkinElmer, Inc.) (excitation wavelength: 440 nm; emission wavelength: 480 nm).
(§1) The final concentration of each compound at the time of measurement was set at 0.1, 0.3, 1, 3, and 10 μM. The sample to which only DMSO was added was used as a negative control and its fluorescence intensity was taken as 0% inhibitory activity.
The samples were placed on a grid and washed with distilled water. A 1 mM phosphotungstic acid aqueous solution was added to the samples. The samples were washed, dried overnight, and observed.

[3] = target: T2, Aβ 1-42 (Homo sapiens, UniProt P05067); assay: Determination of Aβ aggregation inhibitory activity (thioflavin T fluorescence); type: biochemical; conditions: for IC50: Aβ 1-42, 37° C. for 24 hours, thioflavin T, read-out: IC50 (μM) Test example 3 (Aβ aggregation inhibitory activity)
T2 construct: Aβ 1-42 (Peptide Institute, Inc.) was dissolved in 0.3% ammonia water; purchased Peptide Institute, Inc
Experimental: Pharmacological test example 3: Determination of Aβ aggregation inhibitory activity
Aβ 1-42 (Peptide Institute, Inc.) was dissolved in 0.3% ammonia water so that the concentration would be 0.5 mM and then diluted with PBS to 20 μM. The test compounds were prepared using DMSO at 100-fold of their final concentrations and adjusted so that the DMSO concentration would be 2%. The Aβ solution and each of the test compound solutions were mixed at an equivalent ratio and the mixtures were incubated at 37° C. for 24 hours. To each of the mixtures, an equal volume of a thioflavin T solution adjusted with a 100 mM Tris-glycine buffer (pH 8.5) to 6 μM was added. The fluorescence intensity was measured with a fluorescence plate reader (excitation wavelength: 440 nm; emission wavelength: 480 nm).
as §1

[4] = Evaluation of in vivo pharmacokinetics (blood and brain concentrations, LC-MS/MS); conditions: male, rat, SD rats, brain
Experimental: Pharmacological test example 4: Evaluation of in vivo pharmacokinetics
To SD rats (male, 7 weeks old), the test compound was orally administered (p. o.) at an amount of 50 mg/kg bw or intravenously administered (i.v.) at an amount of 1 mg/kg bw and the concentrations in the blood and brain were measured up to 3 hours. The administration vehicle was an 80% PEG 400 aqueous solution. The blood was collected under isoflurane inhalational anesthesia and the brain was harvested after the rats were sacrificed. The plasma was separated from the blood. The brain was homogenized after addition of a three-fold volume of PBS and then methanol was added thereto. Thus the prepared test samples were subjected to measurement. The measurement was performed by LC-MS/MS (Applied Biosystems and Waters).
The blood concentration changes of the compounds of Example 2 and Example 2 (2) ((1E,6E)-1-(1H-indol-6-yl)-7-[2-methoxy-4-(2-pyridylmethoxy)phenyl]hepta-1,6-diene-3,5-dione) after oral administration (p.o.) thereof are shown in FIG. 2. The brain concentration changes of the compounds after intravenous administration (i.v.) and oral administration (p.o.) thereof are shown in Table 2.

recombinant three-repeat microtubule-binding domain (3R-MBD) of tau protein, sequence (P10636 186-279 isoform P10636-2 limits assumed): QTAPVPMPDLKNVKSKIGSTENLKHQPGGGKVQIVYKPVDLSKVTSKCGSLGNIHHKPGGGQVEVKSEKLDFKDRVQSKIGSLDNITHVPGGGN
T1 sequence (P56817 46-501): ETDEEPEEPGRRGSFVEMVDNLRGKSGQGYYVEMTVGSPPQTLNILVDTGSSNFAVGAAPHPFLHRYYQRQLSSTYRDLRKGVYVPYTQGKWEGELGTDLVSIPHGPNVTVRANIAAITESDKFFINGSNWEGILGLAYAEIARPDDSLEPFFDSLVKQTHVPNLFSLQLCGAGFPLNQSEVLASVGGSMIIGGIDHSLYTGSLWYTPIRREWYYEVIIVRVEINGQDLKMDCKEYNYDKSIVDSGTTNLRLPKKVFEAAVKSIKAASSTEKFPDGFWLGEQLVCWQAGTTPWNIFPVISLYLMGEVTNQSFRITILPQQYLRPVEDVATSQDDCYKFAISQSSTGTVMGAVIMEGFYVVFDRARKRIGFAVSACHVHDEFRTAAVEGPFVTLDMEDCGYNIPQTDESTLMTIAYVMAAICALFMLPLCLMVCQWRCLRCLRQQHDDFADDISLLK
T2 sequence (P05067 672-713): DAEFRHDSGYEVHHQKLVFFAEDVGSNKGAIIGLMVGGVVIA

Row | IC50 [1] | melting point | IC50 [2] | IC50 [3] | concentration at 5 min ([4]; intravenous 1 mg/kg bw, 5 min, read-out: brain concentration i.v. 5 min) | concentration at 180 min ([4]; intravenous 1 mg/kg bw, read-out: brain concentration i.v. 180 min) | concentration at 60 min ([4]; oral 50 mg/kg bw, 60 min, read-out: brain concentration p.o. 60 min) | concentration at 180 min ([4]; oral 50 mg/kg bw, read-out: brain concentration p.o. 180 min) | inhibition at 1 µM [1] | tau aggregation inhibitory activity at 1 μM [2] | inhibition at 3 µM ([3]; compound at 3 μM) | SMILES
1 | 1.25 µM | 96 to 99 °C | 1.29 µM | 3.27 µM | – | – | – | – | – | – | – | CCN(CC)c1ccc(/C=C/c2cc(/C=C/c3ccc4cc[nH]c4c3)[nH]n2)c(OCCN2CCOCC2)c1 [Example 98, 3-[(1E)-2-[4-diethylamino-2-(2-morpholinoethoxy)phenyl]ethenyl]-5-[(1E)-2-(1H-indol-6-yl)ethenyl]-1H-pyrazole]
2 | 1.06 µM | 192 to 198 °C | 1.46 µM | 4.33 µM | – | – | – | – | – | – | – | CN1CCN(c2ccc(/C=C/c3cc(/C=C/c4ccc5cc[nH]c5c4)[nH]n3)cc2)CC1 [Example 102, 5-[(1E)-2-(1H-indol-6-yl)ethenyl]-3-[(1E)-2-[4-(4-methylpiperazin-1-yl)phenyl]ethenyl]-1H-pyrazole]
3 | – | 143 to 146 °C | – | – | – | – | – | – | 12% | 0% | – | COc1cc(OCc2ccccn2)ccc1/C=C/c1cc(/C=C/c2ccccc2)[nH]n1 [Example 109, 3-[(1E)-2-[2-methoxy-4-(2-pyridylmethoxy)phenyl]ethenyl]-5-[(1E)-2-phenylethenyl]-1H-pyrazole]
4 | – | 195 to 197 °C | – | 1.9 µM | – | – | – | – | 12% | 0% | – | COc1cc(OCc2ccccn2)ccc1/C=C/c1cc(/C=C/c2ccc(OCc3ccccn3)cc2OC)[nH]n1 [Example 110, 3,5-bis[(1E)-2-[2-methoxy-4-(2-pyridylmethoxy)phenyl]ethenyl]-1H-pyrazole]
5 | 2.89 µM | 123 to 126 °C | 1.46 µM | 5.05 µM | – | – | – | – | – | – | – | COc1cc(OCc2ccccn2)ccc1/C=C/c1cc(/C=C/c2ccc(O)c(N)c2)[nH]n1 [Example 111, 3-[(1E)-2-[2-methoxy-4-(2-pyridylmethoxy)phenyl]ethenyl]-5-[(1E)-2-(3-amino-4-hydroxy-phenyl)ethenyl]-1H-pyrazole]
6 | – | 289 to 291 °C | – | 2.8 µM | – | – | – | – | 30% | 24% | 17% | C(=C\c1cc(/C=C/c2ccc3cc[nH]c3c2)[nH]n1)/c1ccc2cc[nH]c2c1 [Example 112, 3,5-bis[(1E)-2-(1H-indol-6-yl)ethenyl]-1H-pyrazole]

The next lines start with the compound.

Row | SMILES | IC50 [1] | melting point | IC50 [2] | IC50 [3] | concentration at 5 min ([4]; intravenous 1 mg/kg bw, 5 min, read-out: brain concentration i.v. 5 min) | concentration at 180 min ([4]; intravenous 1 mg/kg bw, read-out: brain concentration i.v. 180 min) | concentration at 60 min ([4]; oral 50 mg/kg bw, 60 min, read-out: brain concentration p.o. 60 min) | concentration at 180 min ([4]; oral 50 mg/kg bw, read-out: brain concentration p.o. 180 min) | inhibition at 1 µM [1] | tau aggregation inhibitory activity at 1 μM [2] | inhibition at 3 µM ([3]; compound at 3 μM)
7 | COc1cc(OCC2CCCO2)ccc1/C=C/c1cc(/C=C/c2ccc3cc[nH]c3c2)[nH]n1 (stereo not shown) [Example 1, 3-[(1E)-2-(1H-indol-6-yl)ethenyl]-5-[(1E)-2-[2-methoxy-4-(2-tetrahydrofuranylmethoxy)phenyl]ethenyl]-1H-pyrazole] | 2.85 µM | 218 to 220 °C | 1.49 µM | 3 µM | – | – | – | – | – | – | –
8 | COc1cc(OCc2ccccn2)ccc1/C=C/C(=O)CC(=O)/C=C/c1ccc2cc[nH]c2c1 [Example 2 (2), (1E,6E)-1-(1H-indol-6-yl)-7-[2-methoxy-4-(2-pyridylmethoxy)phenyl]hepta-1,6-diene-3,5-dione] | – | – | – | – | 5.15 ± 3.34 ng/mL | 0.93 ± 0.67 ng/mL | 0 ng/mL | 18 ± 30.8 ng/mL | – | – | –
9 | Oc1cc(OCc2ccccn2)ccc1/C=C/c1cc(/C=C/c2ccc3cc[nH]c3c2)[nH]n1 [Example 3, 3-[(1E)-2-(1H-indol-6-yl)ethenyl]-5-[(1E)-2-[2-hydroxy-4-(2-pyridylmethoxy)phenyl]ethenyl]-1H-pyrazole] | 2.9 µM | 202.5 to 203.5 °C | – | 1.6 µM | – | – | – | – | – | – | –
10 | COc1cc(OCCN2CCOCC2)ccc1/C=C/c1cc(/C=C/c2ccc3cc[nH]c3c2)[nH]n1 [Example 27, 3-[(1E)-2-(1H-indol-6-yl)ethenyl]-5-[(1E)-2-[2-methoxy-4-(2-morpholinoethoxy)phenyl]ethenyl]-1H-pyrazole] | 1.04 µM | 113 to 122 °C | 1.28 µM | 7.53 µM | – | – | – | – | – | – | –
11 | COc1cc(OCc2ccccn2)ccc1/C=C/c1cc(/C=C/c2ccc3[nH]cnc3c2)[nH]n1 [Example 31, 3-[(1E)-2-(1H-benzimidazol-5-yl)ethenyl]-5-[(1E)-2-[2-methoxy-4-(2-pyridylmethoxy)phenyl]ethenyl]-1H-pyrazole] | 0.69 µM | 135 to 142 °C | 1.57 µM | 6.88 µM | – | – | – | – | – | – | –
12 | COc1ccc([N+](=O)[O-])c(/C=C/c2cc(/C=C/c3ccc4cc[nH]c4c3)[nH]n2)c1 [Example 58, 3-[(1E)-2-(1H-indol-6-yl)ethenyl]-5-[(1E)-2-(5-methoxy-2-nitrophenyl)ethenyl]-1H-pyrazole] | 1.11 µM | 104 to 109 °C | 3.84 µM | 2.17 µM | – | – | – | – | – | – | –
13 | COc1cc(OCc2ccccc2)ccc1/C=C/c1cc(/C=C/c2ccc3cc[nH]c3c2)[nH]n1 [Example 63, 3-[(1E)-2-(4-benzyloxy-2-methoxyphenyl)ethenyl]-5-[(1E)-2-(1H-indol-6-yl)ethenyl]-1H-pyrazole] | 4.39 µM | 86 to 91 °C | 1.37 µM | > 10 µM | – | – | – | – | – | – | –
14 | CN1CCCN(c2ccc(/C=C/c3cc(/C=C/c4ccc5cc[nH]c5c4)[nH]n3)c(Br)c2)CC1 [Example 72, 3-[(1E)-2-[2-bromo-4-(4-methyl-1,4-diazepan-1-yl)phenyl]ethenyl]-5-[(1E)-2-(1H-indol-6-yl)ethenyl]-1H-pyrazole] | 0.22 µM | 132 to 136 °C | 1.46 µM | 2.45 µM | – | – | – | – | – | – | –
15 | COc1cc(OCc2ccccn2)ccc1/C=C/c1cc(/C=C/c2ccc3c(c2)OCO3)[nH]n1 [Example 77, 3-[(1E)-2-(1,3-benzodioxol-5-yl)ethenyl]-5-[(1E)-2-[2-methoxy-4-(2-pyridylmethoxy)phenyl]ethenyl]-1H-pyrazole] | 13.7 µM | 218 to 220 °C | 1.26 µM | > 10 µM | – | – | – | – | – | – | –
16 | COc1cc(OCc2nccs2)ccc1/C=C/c1cc(/C=C/c2ccc3cc[nH]c3c2)[nH]n1 [Example 82, 3-[(1E)-2-(1H-indol-6-yl)ethenyl]-5-[(1E)-2-[2-methoxy-4-(1,3-thiazol-2-ylmethoxy)phenyl]ethenyl]-1H-pyrazole] | 3.99 µM | 229 to 237 °C | 1.04 µM | 4.43 µM | – | – | – | – | – | – | –
17 | COc1cc(OCc2ccccn2)ccc1/C=C/c1cc(/C=C/c2ccc3c(c2)OCCO3)[nH]n1 [Example 83, 3-[(1E)-2-(1,4-benzodioxan-6-yl)ethenyl]-5-[(1E)-2-[2-methoxy-4-(2-pyridylmethoxy)phenyl]ethenyl]-1H-pyrazole] | 22.7 µM | 153 to 155 °C | 0.85 µM | > 10 µM | – | – | – | – | – | – | –
